From article PMC12147714 (FEMS Microbiology Letters, 2025)

Columns and labels:
Assay type in all cases: cell-based, Pseudomonas aeruginosa
[1] = test system: PAO1 and PAO1 TnoprD producing one of eight different carbapenemases; assay: MIC and checkerboard, isogenic strains as a group
From the text: Pseudomonas aeruginosa isolate, PAO1, was used alongside its isogenic counterpart, PAO1 TnoprD, which lacks a functional OprD porin (Held et al. [2012]). β-lactamases, blaIMP-1, blaIMP-10, blaIMP-13, blaNDM-1, blaSPM-1, blaVIM-1, blaVIM-2, and blaKPC-2, had previously been cloned into the pUCP24 shuttle vector (Bouvier et al. [2025]), and were transformed by electroporation into both PAO1 and PAO1 TnoprD.
. MICs of DMSA, CAZ, FEP and checkerboards for the combinations, CAZ/DMSA and FEP/DMSA, were performed for all clinical isolates. All susceptibility testing results were interpreted according to CLSI guidelines (CLSI [2023]). The fractional inhibitory concentration index (FICI) was calculated and interpreted as follows: the MIC of drug A in combination/the MIC of drug A alone + the MIC of drug B in combination/the MIC drug B alone. FICI ≤ 0.5 = synergy; 0.5 < FICI ≤ 1 = additive; FICI 1 < FICI < 2 = indifference, and FICI ≥ 2 = antagonism. All susceptibility testing/checkerboard assays were performed in triplicate.

[2] = test system: clinical isolate D13 (IMP-7); assay: microbe, parasite or virus in culture
Description: (§1) Thirty-two carbapenem-resistant clinical P. aeruginosa, with previously defined carbapenem-resistance mechanisms, were included.
(§2) The fractional inhibitory concentration index (FICI) was calculated and interpreted as follows: the MIC of drug A in combination/the MIC of drug A alone + the MIC of drug B in combination/the MIC drug B alone. FICI ≤ 0.5 = synergy; 0.5 < FICI ≤ 1 = additive; FICI 1 < FICI < 2 = indifference, and FICI ≥ 2 = antagonism. All susceptibility testing/checkerboard assays were performed in triplicate.

[3] = test system: clinical isolate D25 (VIM-4); assay: microbe, parasite or virus in culture
Description: as §1, §2

[4] = test system: clinical isolate D19 (IMP-4, OXA-181, VIM-5); assay: microbe, parasite or virus in culture
Description: as §1, §2

[5] = test system: clinical isolate D2 (IMP-1); assay: microbe, parasite or virus in culture
Description: as §1, §2

[6] = test system: clinical isolate D30 (KPC-2); assay: microbe, parasite or virus in culture
Description: as §1, §2

[7] = test system: clinical isolate D32 (Permeability); assay: microbe, parasite or virus in culture
Description: as §1, §2

[8] = test system: clinical isolate D4 (IMP-1); assay: microbe, parasite or virus in culture
Description: as §1, §2

[9] = test system: clinical isolate D11 (IMP-7); assay: microbe, parasite or virus in culture
Description: as §1, §2

[10] = test system: clinical isolate D22 (NDM-1, VIM-2); assay: microbe, parasite or virus in culture
Description: as §1, §2

[11] = test system: clinical isolate D7 (IMP-1); assay: microbe, parasite or virus in culture
Description: as §1, §2

[12] = test system: clinical isolate D21 (NDM-1); assay: microbe, parasite or virus in culture
Description: as §1, §2

[13] = test system: clinical isolate D31 (Permeability); assay: microbe, parasite or virus in culture
Description: as §1, §2

[14] = test system: clinical isolate D9 (IMP-7); assay: microbe, parasite or virus in culture
Description: as §1, §2

[15] = test system: clinical isolate D28 (GES-5, OXA-181); assay: microbe, parasite or virus in culture
Description: as §1, §2

[16] = test system: clinical isolate D6 (IMP-1); assay: microbe, parasite or virus in culture
Description: as §1, §2

[17] = test system: clinical isolate D5 (IMP-1); assay: microbe, parasite or virus in culture
Description: as §1, §2

[18] = test system: clinical isolate D16 (IMP-13); assay: microbe, parasite or virus in culture
Description: as §1, §2

[19] = test system: clinical isolate D29 (KPC-2); assay: microbe, parasite or virus in culture
Description: as §1, §2

[20] = test system: clinical isolate D17 (IMP-13); assay: microbe, parasite or virus in culture
Description: as §1, §2

[21] = test system: clinical isolate D8 (IMP-4); assay: microbe, parasite or virus in culture
Description: as §1, §2

[22] = test system: clinical isolate D10 (IMP-7); assay: microbe, parasite or virus in culture
Description: as §1, §2

[23] = test system: clinical isolate D26 (VIM-4); assay: microbe, parasite or virus in culture
Description: as §1, §2

[24] = test system: clinical isolate D14 (IMP-10); assay: microbe, parasite or virus in culture
Description: as §1, §2

[25] = test system: clinical isolate D12 (IMP-7); assay: microbe, parasite or virus in culture
Description: as §1, §2

[26] = test system: clinical isolate D20 (NDM-1); assay: microbe, parasite or virus in culture
Description: as §1, §2

[27] = test system: clinical isolate D3 (IMP-1); assay: microbe, parasite or virus in culture
Description: as §1, §2

[28] = test system: clinical isolate D23 (VIM-2); assay: microbe, parasite or virus in culture
Description: as §1, §2

[29] = test system: clinical isolate D18 (IMP-18); assay: microbe, parasite or virus in culture
Description: as §1, §2

[30] = test system: clinical isolate D15 (IMP-13); assay: microbe, parasite or virus in culture
Description: as §1, §2

[31] = test system: clinical isolate D1 (IMP-1); assay: microbe, parasite or virus in culture
Description: as §1, §2

[32] = test system: clinical isolate D27 (VIM-36); assay: microbe, parasite or virus in culture
Description: as §1, §2

[33] = test system: clinical isolate D24 (VIM-2); assay: microbe, parasite or virus in culture
Description: as §1, §2

Structure (SMILES): CC(C)(O/N=C(\C(=O)N[C@@H]1C(=O)N2C(C(=O)[O-])=C(C[n+]3ccccc3)CS[C@H]12)c1csc(N)n1)C(=O)O [CAZ, ceftazidime]
- interaction with DMSA as indicated by the FICIs ([1]; SPM-1 and VIM-1 strains, DMSA 200 mg/l): synergy (FICI ≤ 0.5 = synergy)
- interaction with DMSA as indicated by the FICIs ([1]; strains producing IMP-1, IMP-10 or IMP-13, with and without functional OprD, all three DMSA concentrations (100, 200, 300 mg/l)): synergy (FICI ≤ 0.5 = synergy)
- MIC ([2]; Pseudomonas aeruginosa): 512 µg/mL
- MIC ([3]; Pseudomonas aeruginosa): 32 µg/mL
- MIC ([4]; Pseudomonas aeruginosa): 4100 µg/mL
- MIC ([5]; Pseudomonas aeruginosa): 1020 µg/mL
- MIC ([6]; Pseudomonas aeruginosa): 64 µg/mL
- MIC ([7]; Pseudomonas aeruginosa): 16 µg/mL
- MIC ([8]; Pseudomonas aeruginosa): 1020 µg/mL
- MIC ([9]; Pseudomonas aeruginosa): 512 µg/mL
- MIC ([10]; Pseudomonas aeruginosa): 4100 µg/mL
- MIC ([11]; Pseudomonas aeruginosa): 1020 µg/mL
- MIC ([12]; Pseudomonas aeruginosa): 4100 µg/mL
- MIC ([13]; Pseudomonas aeruginosa): 128 µg/mL
- MIC ([14]; Pseudomonas aeruginosa): 256 µg/mL
- MIC ([15]; Pseudomonas aeruginosa): 16 µg/mL
- MIC ([16]; Pseudomonas aeruginosa): 512 µg/mL
- MIC ([17]; Pseudomonas aeruginosa): 512 µg/mL
- MIC ([18]; Pseudomonas aeruginosa): 512 µg/mL
- MIC ([19]; Pseudomonas aeruginosa): 16 µg/mL
- MIC ([20]; Pseudomonas aeruginosa): 256 µg/mL
- MIC ([21]; Pseudomonas aeruginosa): 2050 µg/mL
- MIC ([22]; Pseudomonas aeruginosa): 512 µg/mL
- MIC ([23]; Pseudomonas aeruginosa): 128 µg/mL
- MIC ([24]; Pseudomonas aeruginosa): 1020 µg/mL
- MIC ([25]; Pseudomonas aeruginosa): 512 µg/mL
- MIC ([26]; Pseudomonas aeruginosa): 4100 µg/mL
- MIC ([27]; Pseudomonas aeruginosa): 512 µg/mL
- MIC ([28]; Pseudomonas aeruginosa): 32 µg/mL
- MIC ([29]; Pseudomonas aeruginosa): 1020 µg/mL
- MIC ([30]; Pseudomonas aeruginosa): 512 µg/mL
- MIC ([31]; Pseudomonas aeruginosa): 1020 µg/mL
- MIC ([32]; Pseudomonas aeruginosa): 512 µg/mL
- MIC ([33]; Pseudomonas aeruginosa): 32 µg/mL

Structure (SMILES): O=C(O)[C@@H](S)[C@@H](S)C(=O)O [DMSA, meso-dimercaptosuccinic acid]
- MIC to DMSA alone ([1]; all isogenic strains): 900 mg/L
- MIC ([2]; isolate D13, drug alone): 700 µg/mL
- MIC ([3]; isolate D25, drug alone): 600 µg/mL
- MIC ([4]; isolate D19, drug alone): 600 µg/mL
- MIC ([5]; isolate D2, drug alone): 600 µg/mL
- MIC ([6]; isolate D30, drug alone): 800 µg/mL
- MIC ([7]; isolate D32, drug alone): 700 µg/mL
- MIC ([8]; isolate D4, drug alone): 900 µg/mL
- MIC ([9]; isolate D11, drug alone): 600 µg/mL
- MIC ([10]; isolate D22, drug alone): 700 µg/mL
- MIC ([11]; isolate D7, drug alone): 800 µg/mL
- MIC ([12]; isolate D21, drug alone): 700 µg/mL
- MIC ([13]; isolate D31, drug alone): 1000 µg/mL
- MIC ([14]; isolate D9, drug alone): 700 µg/mL
- MIC ([15]; isolate D28, drug alone): 600 µg/mL
- MIC ([16]; isolate D6, drug alone): 800 µg/mL
- MIC ([17]; isolate D5, drug alone): 800 µg/mL
- MIC ([18]; isolate D16, drug alone): 600 µg/mL
- MIC ([19]; isolate D29, drug alone): 800 µg/mL
- MIC ([20]; isolate D17, drug alone): 700 µg/mL
- MIC ([21]; isolate D8, drug alone): 500 µg/mL
- MIC ([22]; isolate D10, drug alone): 600 µg/mL
- MIC ([23]; isolate D26, drug alone): 700 µg/mL
- MIC ([24]; isolate D14, drug alone): 900 µg/mL
- MIC ([25]; isolate D12, drug alone): 600 µg/mL
- MIC ([26]; isolate D20, drug alone): 700 µg/mL
- MIC ([27]; isolate D3, drug alone): 700 µg/mL
- MIC ([28]; isolate D23, drug alone): 700 µg/mL
- MIC ([29]; isolate D18, drug alone): 600 µg/mL
- MIC ([30]; isolate D15, drug alone): 500 µg/mL
- MIC ([31]; isolate D1, drug alone): 600 µg/mL
- MIC ([32]; isolate D27, drug alone): 800 µg/mL
- MIC ([33]; isolate D24, drug alone): 600 µg/mL
